In patent publication US20260000698A1 (priority 2022, published 2026):

How the values were obtained:
[1] = target: T1, METTL3/METTL14 (Homo sapiens, UniProt Q86U44); assay: Human MTase screening: METTL3/METTL14; type: biochemical
T1 construct: purchased BPS Bioscience
Procedure: (§1) Assay conditions. The human methyltransferase inhibition assays were performed at BPS Bioscience (San Diego, CA, USA). All of the enzymatic reactions were conducted in duplicate at room temperature for 60-960 min in a 50 μL mixture containing proper methyltransferase assay buffer, S-adenosylmethionine (SAM), enzyme, and the test compound. These 50 μL reactions were carried out in wells of a substrate pre-coated plate. First, enzyme and inhibitor were added to assay wells and preincubated for 30 min at room temperature, then SAM was added to start the reaction. Final DMSO concentration was 1% in all reactions.
(§2) After enzymatic reactions, the reaction mixtures were discarded and each of the wells was washed three times with TBST buffer, and slowly shaken with Blocking Buffer for 10 min. Wells were emptied, and 100 μL of diluted primary antibody was added. The plate was then slowly shaken for 60 minutes at room temperature. […] Immediately, the luminescence of the samples was measured in a BioTek Synergy™ 2 (Winooski, VT, USA) microplate reader using Gen5 software.
(§3) Data analysis. […] The luminescence data/alpha counts were analyzed and compared. […] The percent activity in the presence of each compound was calculated according to the following equation: % activity=(C−C0)/(Ce−C0), where C=the luminescence/alpha counts in the presence of the compound.

[2] = target: T2, SUV39H1 (Homo sapiens, UniProt O43463); assay: Human MTase screening: SUV39H1; type: biochemical
T2 construct: purchased BPS Bioscience
T2 sequence (O43463 1-412): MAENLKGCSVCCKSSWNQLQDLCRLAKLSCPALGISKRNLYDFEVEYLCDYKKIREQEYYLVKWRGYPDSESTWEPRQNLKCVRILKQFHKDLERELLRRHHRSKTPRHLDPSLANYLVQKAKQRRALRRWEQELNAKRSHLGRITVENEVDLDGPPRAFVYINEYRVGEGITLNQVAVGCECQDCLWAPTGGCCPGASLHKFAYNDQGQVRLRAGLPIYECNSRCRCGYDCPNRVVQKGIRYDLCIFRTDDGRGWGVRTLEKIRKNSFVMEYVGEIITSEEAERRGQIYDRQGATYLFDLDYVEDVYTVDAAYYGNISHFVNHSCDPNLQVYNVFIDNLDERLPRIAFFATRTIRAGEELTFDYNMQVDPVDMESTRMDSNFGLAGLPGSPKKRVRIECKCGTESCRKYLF
Procedure: as §1, §2, §3

[3] = system: A549/ACE2/TMPRSS2 cells; assay: in vitro; conditions: cell viability at 50 μM
[4] = target: T3, G9a (Homo sapiens, UniProt Q96KQ7); assay: Human MTase screening: G9a; type: biochemical
T3 construct: purchased BPS Bioscience
T3 sequence (Q96KQ7 1-1210): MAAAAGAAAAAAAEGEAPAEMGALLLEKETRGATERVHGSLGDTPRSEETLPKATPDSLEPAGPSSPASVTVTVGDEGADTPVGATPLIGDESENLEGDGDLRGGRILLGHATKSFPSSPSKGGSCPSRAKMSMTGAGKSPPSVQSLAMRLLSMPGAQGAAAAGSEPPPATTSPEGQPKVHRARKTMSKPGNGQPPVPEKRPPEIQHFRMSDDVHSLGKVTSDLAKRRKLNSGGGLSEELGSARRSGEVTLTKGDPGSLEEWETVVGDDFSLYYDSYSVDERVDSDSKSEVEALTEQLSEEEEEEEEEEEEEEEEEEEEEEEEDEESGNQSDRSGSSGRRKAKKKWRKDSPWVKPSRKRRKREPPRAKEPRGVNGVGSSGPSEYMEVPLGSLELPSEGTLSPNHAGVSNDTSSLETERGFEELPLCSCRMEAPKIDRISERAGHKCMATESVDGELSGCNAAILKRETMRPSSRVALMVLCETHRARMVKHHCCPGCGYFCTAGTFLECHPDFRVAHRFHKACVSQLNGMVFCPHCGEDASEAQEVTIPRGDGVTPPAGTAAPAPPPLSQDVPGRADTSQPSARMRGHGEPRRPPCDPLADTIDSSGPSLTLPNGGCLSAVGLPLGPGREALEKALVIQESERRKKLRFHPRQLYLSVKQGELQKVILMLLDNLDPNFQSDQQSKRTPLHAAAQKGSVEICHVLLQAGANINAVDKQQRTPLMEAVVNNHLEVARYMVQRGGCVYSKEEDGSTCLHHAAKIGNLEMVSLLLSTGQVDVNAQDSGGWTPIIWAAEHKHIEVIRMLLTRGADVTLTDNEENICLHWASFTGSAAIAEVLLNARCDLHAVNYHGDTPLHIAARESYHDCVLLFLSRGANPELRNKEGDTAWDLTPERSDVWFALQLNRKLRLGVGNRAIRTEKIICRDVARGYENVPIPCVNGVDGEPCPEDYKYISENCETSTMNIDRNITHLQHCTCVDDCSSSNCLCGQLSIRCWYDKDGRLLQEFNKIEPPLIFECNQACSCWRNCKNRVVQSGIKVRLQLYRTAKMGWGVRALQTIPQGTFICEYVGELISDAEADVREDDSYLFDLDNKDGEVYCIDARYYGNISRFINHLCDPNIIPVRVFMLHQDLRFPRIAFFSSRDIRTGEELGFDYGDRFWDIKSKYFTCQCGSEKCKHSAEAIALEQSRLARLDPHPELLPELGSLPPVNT
Procedure: as §1, §2, §3

T1 sequence (Q86U44 whole entry): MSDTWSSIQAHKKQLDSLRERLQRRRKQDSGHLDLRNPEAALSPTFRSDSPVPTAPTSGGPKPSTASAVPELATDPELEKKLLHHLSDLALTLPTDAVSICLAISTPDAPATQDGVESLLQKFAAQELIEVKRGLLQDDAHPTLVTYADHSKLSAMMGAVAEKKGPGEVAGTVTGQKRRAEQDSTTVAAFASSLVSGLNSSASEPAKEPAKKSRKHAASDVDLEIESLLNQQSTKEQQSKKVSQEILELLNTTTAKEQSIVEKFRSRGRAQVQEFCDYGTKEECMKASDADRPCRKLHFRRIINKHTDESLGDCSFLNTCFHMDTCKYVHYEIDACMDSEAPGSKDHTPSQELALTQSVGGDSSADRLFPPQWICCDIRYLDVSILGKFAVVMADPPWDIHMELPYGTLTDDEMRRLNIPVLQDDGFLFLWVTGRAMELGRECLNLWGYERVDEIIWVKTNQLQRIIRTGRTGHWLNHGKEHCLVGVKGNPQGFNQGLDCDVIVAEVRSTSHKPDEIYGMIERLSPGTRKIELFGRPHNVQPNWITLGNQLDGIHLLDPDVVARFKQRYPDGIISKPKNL
T1 sequence (Q9HCE5 whole entry partner): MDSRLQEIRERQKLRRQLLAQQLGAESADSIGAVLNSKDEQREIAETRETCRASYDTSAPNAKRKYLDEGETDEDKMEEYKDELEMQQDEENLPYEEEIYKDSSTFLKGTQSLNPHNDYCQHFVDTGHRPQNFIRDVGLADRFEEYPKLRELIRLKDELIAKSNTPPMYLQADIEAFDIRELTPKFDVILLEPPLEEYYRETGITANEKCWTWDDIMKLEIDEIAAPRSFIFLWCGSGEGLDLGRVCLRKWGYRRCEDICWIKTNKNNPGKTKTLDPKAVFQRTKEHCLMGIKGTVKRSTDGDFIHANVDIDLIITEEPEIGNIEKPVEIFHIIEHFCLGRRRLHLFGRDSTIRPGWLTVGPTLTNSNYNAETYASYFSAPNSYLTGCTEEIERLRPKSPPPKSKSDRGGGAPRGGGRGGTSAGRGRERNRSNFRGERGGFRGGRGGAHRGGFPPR

Nc1ncnc2c1ncn2[C@@H]1O[C@H](CNS(=O)(=O)c2ccc3ccccc3c2)[C@@H](O)[C@H]1O [Compound 3, N-(((2R,3S,4R,5R)-5-(6-Amino-9H-purin-9-yl)-3,4-dihydroxytetrahydrofuran-2-yl)methyl)naphthalene-2-sulfonamide]
inhibition at 10 µM [1]: 10%
stability in mouse liver S9 fractions: resistant to phase I and II transformations
inhibition at 10 µM [2]: 11%
CC50: NT (nontoxic) [3]: NT^b (NT, nontoxic, >95% cell viability at 50 μM;)
inhibition at 10 µM [4]: 11%
